{"source": "patent US10781236B2", "about": "“Bacteriocin composition and method” (priority 2015, dated 2020)", "key": {"[1]": {"tested_on": "L. monocytogenes LMGT 2650", "assay": "Relative MIC, inhibitory spectrum", "assay_type": "cell-based, Listeria monocytogenes", "conditions": "relative to L. lactis IL 1403 = 1"}, "L. Sakei LMGT 2380": {"tested_on": "L. Sakei LMGT 2380", "assay": "Relative MIC, inhibitory spectrum", "assay_type": "cell-based, Lactobacillus sakei", "conditions": "relative to L. lactis IL 1403 = 1"}, "L. Sakei LMGT 2361": {"tested_on": "L. Sakei LMGT 2361", "assay": "Relative MIC, inhibitory spectrum", "assay_type": "cell-based, Lactobacillus sakei", "conditions": "relative to L. lactis IL 1403 = 1"}, "S. pneumonia": {"tested_on": "S. pneumonia", "assay": "Antimicrobial activity against problematic bacteria", "assay_type": "cell-based, Streptococcus pneumonia", "procedure": "(§1) To screen for bacteriocin producers with broad inhibition spectra (BIS), Lactococcus lactis, Lactobacillus sakei, Lactobacillus plantarum, Listeria innocua, and Staphylococcus aureus from the food and dairy environment were used as indicators in the first round of screening. The antimicrobial screening was performed using the agar diffusion bioassay as previously described (Holo et al., 1991, J. Bacteriol., 173, p 3879-3887). Briefly, indicator cells from overnight cultures were diluted 100-fold in 5 mL of BHI soft agar and plated out as a lawn on BHI agar plates. Potential bacteriocin producers at volumes of 3 μL were spotted on the indicator lawn and then incubated at appropriate temperatures for 24 h for cell growth and cell inhibition. Inhibition was detected as clear zones around the spotted cells.\n(§2) As the antimicrobial activity of garvicin KS is relatively broad, we explored further its potential to kill a larger panel of important pathogens. The list contained 147 problematic or potentially problematic bacteria of species belonging to Listeria, Staphylococcus, Streptococcus and Enterococcus, isolated from food and clinical sources. In this assay, we compared the antimicrobial activity of garvicin KS with that of garvicin ML and nisin, the last one being known as a broad inhibition-spectrum bacteriocin (AIKhatib et al., 2014, PLOS One 9:e102246 doi:10.1371/joumal.pone.0102246). […]"}, "L. innocua": {"tested_on": "L. innocua", "assay": "Antimicrobial activity against problematic bacteria", "assay_type": "cell-based, Listeria innocua", "conditions": "food sources", "procedure": "as §1, §2"}, "L. lactis LMGT 2081": {"tested_on": "L. lactis LMGT 2081", "assay": "Relative MIC, inhibitory spectrum", "assay_type": "cell-based, Lactococcus lactis", "conditions": "relative to L. lactis IL 1403 = 1"}, "E. faecium LMGT 2763": {"tested_on": "E. faecium LMGT 2763", "assay": "Relative MIC, inhibitory spectrum", "assay_type": "cell-based, Enterococcus faecium", "conditions": "relative to L. lactis IL 1403 = 1"}, "L. curvatus LMGT 2355": {"tested_on": "L. curvatus LMGT 2355", "assay": "Relative MIC, inhibitory spectrum", "assay_type": "cell-based, Lactobacillus curvatus", "conditions": "relative to L. lactis IL 1403 = 1"}, "[2]": {"tested_on": "53 strains of different genera in the Firmicutes family", "assay": "Inhibitory spectrum, whole panel of Table 3", "assay_type": "cell-based", "conditions": "53 strains of Table 3", "description": "A more extended comparison between the bacteriocin activity of L. garvieae KS 1546 (termed garvicin KS) and L. garvieae DCC 43 (garvicin ML producer) can also be seen in Table 3."}, "[3]": {"tested_on": "Pediococcus acidilactici LMGT 2002", "assay": "Relative MIC, inhibitory spectrum", "assay_type": "cell-based", "conditions": "relative to L. lactis IL 1403 = 1"}, "[4]": {"tested_on": "Bacillus cereus LMGT 2805", "assay": "Relative MIC, inhibitory spectrum", "assay_type": "cell-based", "conditions": "relative to L. lactis IL 1403 = 1"}, "L. lactis LMGT 3419": {"tested_on": "L. lactis LMGT 3419", "assay": "Relative MIC, inhibitory spectrum", "assay_type": "cell-based, Lactococcus lactis", "conditions": "relative to L. lactis IL 1403 = 1"}, "[5]": {"tested_on": "Lactobacillus curvatus LMGT 2353", "assay": "Relative MIC, inhibitory spectrum", "assay_type": "cell-based", "conditions": "relative to L. lactis IL 1403 = 1"}, "Strep. Thermophylus": {"tested_on": "Strep. Thermophylus", "assay": "Antimicrobial activity against problematic bacteria", "assay_type": "cell-based, Streptococcus thermophylus", "conditions": "food sources", "procedure": "as §1, §2"}, "L. plantarum LMGT 2003": {"tested_on": "L. plantarum LMGT 2003", "assay": "Relative MIC, inhibitory spectrum", "assay_type": "cell-based, Lactobacillus plantarum", "conditions": "relative to L. lactis IL 1403 = 1"}, "S. aureus LMGT 3265": {"tested_on": "S. aureus LMGT 3265", "assay": "Relative MIC, inhibitory spectrum", "assay_type": "cell-based, Staphylococcus aureus", "conditions": "relative to L. lactis IL 1403 = 1"}, "L. Sakei LMGT 2799": {"tested_on": "L. Sakei LMGT 2799", "assay": "Relative MIC, inhibitory spectrum", "assay_type": "cell-based, Lactobacillus sakei", "conditions": "relative to L. lactis IL 1403 = 1"}, "P. pentosaceus LMGT 2366": {"tested_on": "P. pentosaceus LMGT 2366", "assay": "Relative MIC, inhibitory spectrum", "assay_type": "cell-based, Pediococcus pentosaceus", "conditions": "relative to L. lactis IL 1403 = 1"}, "[6]": {"tested_on": "147 problematic or potentially problematic bacteria of Listeria, Staphylococcus, Streptococcus and Enterococcus", "assay": "Antimicrobial activity against problematic bacteria, whole panel", "assay_type": "cell-based", "conditions": "for number of sensitive strains / number of strains tested: Total", "procedure": "as §1\nAs the antimicrobial activity of garvicin KS is relatively broad, we explored further its potential to kill a larger panel of important pathogens. The list contained 147 problematic or potentially problematic bacteria of species belonging to Listeria, Staphylococcus, Streptococcus and Enterococcus, isolated from food and clinical sources. In this assay, we compared the antimicrobial activity of garvicin KS with that of garvicin ML and nisin, the last one being known as a broad inhibition-spectrum bacteriocin (AIKhatib et al., 2014, PLOS One 9:e102246 doi:10.1371/joumal.pone.0102246). […] In all cases, garvicin KS was either equal or better than nisin, regardless of whether the isolates were from clinical or food environments, except for the activity toward clinical isolates of S. aureus where nisin appeared marginally better (24/25 for nisin and 23/25 for KS)."}, "L. lactis LMGT 2130": {"tested_on": "L. lactis LMGT 2130", "assay": "Relative MIC, inhibitory spectrum", "assay_type": "cell-based, Lactococcus lactis", "conditions": "relative to L. lactis IL 1403 = 1"}, "L. monocytogenes": {"tested_on": "L. monocytogenes", "assay": "Antimicrobial activity against problematic bacteria", "assay_type": "cell-based, Listeria monocytogenes", "procedure": "as §1, §2"}, "[7]": {"tested_on": "Listeria innocua LMGT 2710", "assay": "Relative MIC, inhibitory spectrum", "assay_type": "cell-based", "conditions": "relative to L. lactis IL 1403 = 1"}, "L. plantarum LMGT 2357": {"tested_on": "L. plantarum LMGT 2357", "assay": "Relative MIC, inhibitory spectrum", "assay_type": "cell-based, Lactobacillus plantarum", "conditions": "relative to L. lactis IL 1403 = 1"}, "E. faecium LMGT 2772": {"tested_on": "E. faecium LMGT 2772", "assay": "Relative MIC, inhibitory spectrum", "assay_type": "cell-based, Enterococcus faecium", "conditions": "relative to L. lactis IL 1403 = 1"}, "L. ivanovii LMGT 2813": {"tested_on": "L. ivanovii LMGT 2813", "assay": "Relative MIC, inhibitory spectrum", "assay_type": "cell-based, Listeria ivanovii", "conditions": "relative to L. lactis IL 1403 = 1"}, "E. faecalis": {"tested_on": "E. faecalis", "assay": "Antimicrobial activity against problematic bacteria", "assay_type": "cell-based, Enterococcus faecalis", "procedure": "as §1, §2"}, "E. faecium": {"tested_on": "E. faecium", "assay": "Antimicrobial activity against problematic bacteria", "assay_type": "cell-based, Enterococcus faecium", "conditions": "food sources", "procedure": "as §1, §2"}, "L. plantarum LMGT 2358": {"tested_on": "L. plantarum LMGT 2358", "assay": "Relative MIC, inhibitory spectrum", "assay_type": "cell-based, Lactobacillus plantarum", "conditions": "relative to L. lactis IL 1403 = 1"}, "L. curvatus LMGT 2715": {"tested_on": "L. curvatus LMGT 2715", "assay": "Relative MIC, inhibitory spectrum", "assay_type": "cell-based, Lactobacillus curvatus", "conditions": "relative to L. lactis IL 1403 = 1"}, "[8]": {"tested_on": "Leuconostoc gelidium LMGT 2386", "assay": "Relative MIC, inhibitory spectrum", "assay_type": "cell-based", "conditions": "relative to L. lactis IL 1403 = 1"}, "L. grayi": {"tested_on": "L. grayi", "assay": "Antimicrobial activity against problematic bacteria", "assay_type": "cell-based, Listeria grayi", "conditions": "food sources", "procedure": "as §1, §2"}, "[9]": {"tested_on": "Staphylococcus aureus LMGT 3022", "assay": "Relative MIC, inhibitory spectrum", "assay_type": "cell-based", "conditions": "relative to L. lactis IL 1403 = 1"}, "L. plantarum LMGT 2379": {"tested_on": "L. plantarum LMGT 2379", "assay": "Relative MIC, inhibitory spectrum", "assay_type": "cell-based, Lactobacillus plantarum", "conditions": "relative to L. lactis IL 1403 = 1"}, "L. curvatus LMGT 2371": {"tested_on": "L. curvatus LMGT 2371", "assay": "Relative MIC, inhibitory spectrum", "assay_type": "cell-based, Lactobacillus curvatus", "conditions": "relative to L. lactis IL 1403 = 1"}}}
{"substance": "garvicin ML", "values": [{"measurement": "Relative MIC value", "setting": "[1]", "value": 64}, {"measurement": "Relative MIC value", "setting": "L. Sakei LMGT 2380", "value": 32}, {"measurement": "Relative MIC value", "setting": "L. Sakei LMGT 2361", "value": 32}, {"measurement": "number of sensitive strains / number of strains tested", "setting": "S. pneumonia; clinical sources", "value": "1/1"}, {"measurement": "number of sensitive strains / number of strains tested", "setting": "S. pneumonia; food sources", "value": "1/1"}, {"measurement": "number of sensitive strains / number of strains tested", "setting": "L. innocua", "value": "1/6"}, {"measurement": "Relative MIC value", "setting": "L. lactis LMGT 2081", "value": "≤0.25"}, {"measurement": "Relative MIC value", "setting": "E. faecium LMGT 2763", "value": "32-64"}, {"measurement": "Relative MIC value", "setting": "L. curvatus LMGT 2355", "value": "2-4"}, {"measurement": "number of sensitive strains (n) among 53 strains", "setting": "[2]", "value": 39}, {"measurement": "sensitive portion of 53 strains", "setting": "[2]", "value": "about 74%"}, {"measurement": "Relative MIC value", "setting": "[3]", "value": 32}, {"measurement": "Relative MIC value", "setting": "[4]", "value": 64}, {"measurement": "Relative MIC value", "setting": "L. lactis LMGT 3419", "value": "≤0.25"}, {"measurement": "Relative MIC value", "setting": "[5]", "value": 16}, {"measurement": "number of sensitive strains / number of strains tested", "setting": "Strep. Thermophylus", "value": "8/8"}, {"measurement": "Relative MIC value", "setting": "L. plantarum LMGT 2003", "value": 64}, {"measurement": "Relative MIC value", "setting": "S. aureus LMGT 3265", "value": "≥512"}, {"measurement": "Relative MIC value", "setting": "L. Sakei LMGT 2799", "value": "8-16"}, {"measurement": "Relative MIC value", "setting": "P. pentosaceus LMGT 2366", "value": 64}, {"measurement": "portion of the 147 strains killed", "setting": "[6]; 147 strains, clinical and food", "value": 34.6, "unit": "%"}, {"measurement": "strains killed among the 147 strains tested", "setting": "[6]; 147 strains, clinical and food", "value": 51, "unit": "strains"}, {"measurement": "number of sensitive strains / number of strains tested", "setting": "[6]; clinical sources", "value": "12/34"}, {"measurement": "number of sensitive strains / number of strains tested", "setting": "[6]; food sources", "value": "39/113"}, {"measurement": "Relative MIC value", "setting": "L. lactis LMGT 2130", "value": 8}, {"measurement": "number of sensitive strains / number of strains tested", "setting": "L. monocytogenes; clinical sources", "value": "0/4"}, {"measurement": "number of sensitive strains / number of strains tested", "setting": "L. monocytogenes; food sources", "value": "0/20"}, {"measurement": "Relative MIC value", "setting": "[7]", "value": 32}, {"measurement": "Relative MIC value", "setting": "L. plantarum LMGT 2357", "value": 64}, {"measurement": "Relative MIC value", "setting": "E. faecium LMGT 2772", "value": 32}, {"measurement": "Relative MIC value", "setting": "L. ivanovii LMGT 2813", "value": 32}, {"measurement": "number of sensitive strains / number of strains tested", "setting": "E. faecalis; clinical sources", "value": "0/2"}, {"measurement": "number of sensitive strains / number of strains tested", "setting": "E. faecalis; food sources", "value": "18/40"}, {"measurement": "number of sensitive strains / number of strains tested", "setting": "E. faecium", "value": "7/7"}, {"measurement": "Relative MIC value", "setting": "L. plantarum LMGT 2358", "value": 512}, {"measurement": "Relative MIC value", "setting": "L. curvatus LMGT 2715", "value": 32}, {"measurement": "Relative MIC value", "setting": "[8]", "value": "32-64"}, {"measurement": "number of sensitive strains / number of strains tested", "setting": "L. grayi", "value": "0/2"}, {"measurement": "Relative MIC value", "setting": "[9]", "value": 512}, {"measurement": "Relative MIC value", "setting": "L. plantarum LMGT 2379", "value": 32}, {"measurement": "Relative MIC value", "setting": "L. curvatus LMGT 2371", "value": 32}]}
